According to patent US12186405B2, “Cleavable tetrazine used in bio-orthogonal drug activation” (TAGWORKS PHARMACEUTICALS B.V., priority 2016, dated 2025):
Blank lines part the entries; values can stand above or below the compound they belong to.

Columns and labels:
[1] = Stability of tetrazine (TZ) Triggers in a MeCN/PBS mixture
Experimental: (§2) 10 μL of a 25 mM TZ stock solution in DMSO (2.5×10^−7 mol TZ) was diluted with MeCN and PBS to a total volume of 1 mL. The aqueous solution was incubated at 20° C. or at 37° C. At selected time points, the TZ solution was analyzed by HPLC-PDA/MS.

[2] = Rate of release of Constructs from IEDDA adducts formed by activation of TZ Trigger with TCO Activator 4.9; format: physicochemical
Experimental: (§1) Then, 10 μL of a 50 mM TCO 4.9 stock solution in DMSO (5.0×10^−7 mol TCO) was added. After the complete disappearance of the pink color (this takes typically between 5 and 30 min, and is due to the IEDDA reaction between TZ and TCO thereby forming IEDDA adducts), the sample was diluted with PBS to a total volume of 1 mL (t=0). […] At selected time points, this solution was analyzed by HPLC-PDA/MS. The decrease of the IEDDA adduct absorption(s) and/or the rise of the leaving group absorption indicated the conversion of the release reaction. […] Alternatively, the rate of the release reaction can be indicated by the conversion (in %) after a certain reaction time (in hours).

[3] = Reactivity (second order rate constant k2) between TZ Triggers and TCO Activator 4.9 in MeCN at 20° C.; format: physicochemical
Experimental: The second order rate constant of the reaction (k2) between a TZ and TCO 4.9 was determined under pseudo first order conditions in MeCN at 20° C. using UV spectroscopic monitoring. […] From the decrease of this absorption, the half-life of the pseudo first order reaction between TZ and TCO was determined. The second order rate constant k2 was obtained by calculation from this half-life and the concentration of TCO

[4] = Stability of TZ Triggers in 50% mouse serum/PBS; format: in vitro ADME; details: 37° C.
Experimental: The mixture was incubated at 37° C. […] The stability was determined as outlined in Example 5.

[5] = Rate of release of a Construct from the IEDDA adduct in 50% mouse serum/PBS; format: in vitro ADME; details: 37° C., 21 h
Experimental: 10 μL of a 25 mM TZ stock solution in DMSO (2.5×10^−7 mol TZ) was diluted with MeCN (50 μL), PBS (475 μL), and mouse serum (475 μL). Then, a stock solution of the appropriate TCO (20 μL 50 mM in DMSO; 1.0×10^−6 mol) was added, and the mixture was incubated at 37° C. At selected time points, aliquots (250 μL) were taken, diluted with cold MeCN (500 μL), stored at 4° C. for 30 min, and then centrifuged at 13400 rpm for 5 min. Part of the clear supernatant (250 μL) was diluted with water (500 μL) and the sample was analyzed by HPLC-PDA/MS.

physchem = details: buffer
Experimental: as §2

[6] = test system: LS174T colon carcinoma xenografts; experiment: In vivo on-tumor reaction between ADC and TCO activators (tumor blocking, ^111In-TCO probe uptake); parameters: species or system mouse; details: ADC (2 mg/kg), one hour later ^111In-TCO probe, 4 h after probe injection
Experimental: DOTA-PEG11-TCO probe 4.4 was labeled with indium-111 in 0.2 M ammonium acetate buffer (pH 6.0) for 10 min at 60° C. followed by a DTPA-challenge to complex any unreacted radiometal. The radiolabeling yield (>95%) and radiochemical purity (>95%) of the obtained ^111In-TCO probe was assessed by radio-ITLC and radio-RP-HPLC, respectively. The on-tumor reactivity between AVP0450-15.4 ADC and two different activators, sTCO—COOH (4.8) and sTCO-PEG11-OH (4.6) in two different doses (100 and 1000 eq with respect to ADC) was evaluated with an in vivo competition assay (tumor blocking), as previously described for a CC49-TCO-Dox conjugate and tetrazine-activators (R. Rossin et al., Bioconjug Chem 2016, 27, 1697-1706). Briefly, mice bearing subcutaneous LS174T colon carcinoma xenografts (n=4 per group) were administered the ADC (2 mg/kg) followed after 48 h by the activator and, one hour later, by the ^111In-TCO probe (1 eq with respect to ADC). The probe uptake in tumors was then compared with mice that received the ADC followed only by the ^111In-TCO probe (no blocking) and with mice that received the ^111In-TCO probe alone (complete blocking). All mice were euthanized 4 h after probe injection. Blood samples were obtained from heart puncture, tumors and other tissues of interest were dissected, blotted dry, weighed and counted in a gamma-counter.

[7] = Rate of release of Constructs from IEDDA adducts formed by activation of TZ Trigger with TCO Activator 4.9; format: physicochemical; details: Method F: MeCN at 37° C.; 23 h
[8] = Rate of release of Constructs as Example 7 but after reaction with sTCO 4.8; format: physicochemical; details: Method E: 5% MeCN in PBS at 37° C.
Experimental: as §1, with “Then, 10 μL of a 50 mM TCO 4.9 stock solution in DMSO (5.0×10^−7 mol TCO) was added.” left out

[9] = Reactivity (k2) as Example 6 but assessed with sTCO 4.8; format: physicochemical; details: assessed with sTCO 4.8 and not TCO 4.9; MeCN at 20° C.
Experimental: A cuvette was filled with 3 mL of a 3.33 mM TCO solution in MeCN (1.0×10^−5 mol TCO) and this solution was equilibrated at 20° C. […] From the decrease of this absorption, the half-life of the pseudo first order reaction between TZ and TCO was determined. The second order rate constant k2 was obtained by calculation from this half-life and the concentration of TCO

[10] = Method C: 20% MeCN in PBS at 37° C., 16 h
[11] = Method A: 33% MeCN in PBS at 20° C., 16 h

half-life at 250 µM [1]: > 150 h
SMILES: O=C(Oc1ccccc1)N1CCCC1c1nnc(-c2ccccc2)nn1 (centres unmarked) [Compound 3.27]
Release % (conversion) ([2]; Method C: 20% MeCN in PBS at 37° C., 24 h): 49%
Release % (conversion) ([2]; Method C: 20% MeCN in PBS at 37° C., 48 h): 72%

half-life at 250 µM [1]: 650 h
half-life at 248 µM ([4]; 50% mouse serum in PBS, read-out: Stability t1/2 (converted)): 55 h
SMILES: CC(C)c1nnc(C(C)OC(=O)N(Cc2ccccc2)C(C)C)nn1 (centres unmarked) [Compound 2.42]
Reactivity k2 ([3]; TZ with TCO in MeCN at 20° C.): 0.21 M⁻¹ s⁻¹
Release % (conversion) ([5]; Dienophile 4.8, endo isomer): 77% (21 h)
Release % (conversion) [2, 10]: 100% (16 h)

half-life at 250 µM [1]: 6.5 h
SMILES: CC(OC(=O)OCc1ccccc1)c1nnc(C(C)OC(=O)OCc2ccccc2)nn1 (centres unmarked) [Compound 2.8]
Release % (conversion) [2, 11]: 100% (16 h)

SMILES: O=C(NCc1nnc(CNC(=O)Oc2ccccc2)nn1)Oc1ccccc1 [Compound 3.2]
Release % (conversion) ([2]; Method B: 33% MeCN in PBS at 37° C., 19 h): 25% (19 h)

SMILES: CC(OC(=O)N(C)Cc1ccccc1)c1nnc(C(C)OC(=O)N(C)Cc2ccccc2)nn1 (mixture of isomers) [Compound 2.36]
Release % (conversion) [2, 10]: 100% (16 h)

SMILES: Cc1cc(C)cc(NC(=O)OC(C)c2nnc(-c3ccccc3)nn2)c1 (racemic) [Compound 2.17]
Reactivity k2 ([3]; TZ with TCO in MeCN at 20° C.): 4.5 M⁻¹ s⁻¹

SMILES: CC(C)c1nnc(/C=C/COC(=O)Nc2ccccc2)nn1 [Compound 2.57]
Reactivity k2 ([3]; TZ with TCO in MeCN at 20° C.): 0.33 M⁻¹ s⁻¹
half-life at 250 µM (physchem): > 400 h

half-life at 250 µM [1]: > 4800 h
SMILES: CC(OC(=O)N(C)Cc1ccccc1)c1nnc(-c2ccc(NC(=O)OC(C)(C)C)cc2)nn1 (centres unmarked) [Compound 2.48]
Reactivity k2 ([3]; TZ with TCO in MeCN at 20° C.): 1.46 M⁻¹ s⁻¹

SMILES: O=C(NCc1ccccc1)OCc1nnc(COC(=O)NCc2ccccc2)nn1 [Compound 2.4]
Reactivity k2 ([3]; TZ with TCO in MeCN at 20° C.): 24 M⁻¹ s⁻¹

half-life at 250 µM [1]: > 400 h
SMILES: O=C(Nc1ccccc1)OC/C=C/c1nnc(-c2ccccc2)nn1 [Compound 2.53]

SMILES: O=C(NC1CCCC1c1nnc(-c2ccccc2)nn1)Oc1ccccc1 (centres unmarked) [Compound 3.25]
Release % (conversion) ([2]; Method G: 50% MeCN in PBS at 37° C., 16 h): 57% (16 h)
half-life (physchem): > 140 h

SMILES: CC(OC(=O)N(C)Cc1ccccc1)c1nnc(-c2ccccc2)nn1 (racemic) [Compound 2.21]
Reactivity k2 ([3]; TZ with TCO in MeCN at 20° C.): 2.54 M⁻¹ s⁻¹

SMILES: O=C(O)[C@@H]1[C@@H]2CC/C=C/CC[C@@H]21 [Compound 4.8, (E-endo)-bicyclo[6.1.0]non-4-ene-9-carboxylic acid]
^111In-uptake in tumor ([6]; after 48 h activator 100 eq): 0.13 ± 0.03 % ID/g
^111In-uptake in tumor ([6]; after 48 h activator 1000 eq): 0.10 ± 0.03 % ID/g

SMILES: CC(C)c1nnc(C(C)OC(=O)N(C)c2ccccc2)nn1 (racemic) [Compound 2.20]
Reactivity k2 ([3]; TZ with TCO in MeCN at 20° C.): 0.19 M⁻¹ s⁻¹
Release % (conversion) ([2]; Method C: 20% MeCN in PBS at 37° C., 1.3 h): 45%
Release % (conversion) [2, 10]: 100%

half-life at 250 µM [1]: < 4 h
SMILES: O=C(OCc1nnc(-c2ccccc2)nn1)Oc1ccccc1 [Compound 2.18]
Release % (conversion) [7]: 10% (23 h)

SMILES: O=C(NCCOCCOCCOCCOCCOCCOCCOCCOCCOCCO)[C@@H]1[C@@H]2CC/C=C/CC[C@@H]21 [Compound 4.6]
^111In-uptake in tumor ([6]; after 48 h activator 100 eq): 0.15 ± 0.05 % ID/g
^111In-uptake in tumor ([6]; after 48 h activator 1000 eq): 0.14 ± 0.52 % ID/g

half-life at 250 µM [1]: > 4800 h
SMILES: CC(OC(=O)N(C)Cc1ccccc1)c1nnc(-c2ccc(N)cc2)nn1 (centres unmarked) [Compound 2.49]
Reactivity k2 ([3]; TZ with TCO in MeCN at 20° C.): 0.44 M⁻¹ s⁻¹

SMILES: CC(OC(=O)NCc1ccccc1)c1nnc(C(C)OC(=O)NCc2ccccc2)nn1 (mixture of isomers) [Compound 2.5]
Reactivity k2 ([3]; TZ with TCO in MeCN at 20° C.): 1.5 M⁻¹ s⁻¹

Stability t1/2 [4]: 16 h
SMILES: CN(Cc1ccccc1)C(=O)OCc1nnc(CCN(C)C(=O)OC(C)(C)C)nn1 [Compound 2.24]
Reactivity k2 ([3]; TZ with TCO in MeCN at 20° C.): 4.6 M⁻¹ s⁻¹
Release % (conversion) ([5]; Dienophile 4.0, axial isomer): 51% (21 h)

SMILES: CC(OC(=O)N(c1ccccc1)C(C)C)c1nnc(C(C)OC(=O)N(c2ccccc2)C(C)C)nn1 (mixture of isomers) [Compound 2.40]
Reactivity k2 ([3]; TZ with TCO in MeCN at 20° C.): 1.22 M⁻¹ s⁻¹
Release % (conversion) ([2]; Method C: 20% MeCN in PBS at 37° C., 22 h): 100% (22 h)

Stability t1/2 [4]: 32 h
SMILES: CC(C)c1nnc(COC(=O)N(C)Cc2ccccc2)nn1 [Compound 2.19]
Reactivity k2 ([3]; TZ with TCO in MeCN at 20° C.): 0.79 M⁻¹ s⁻¹
Release % (conversion) ([5]; Dienophile 4.0, axial isomer): 61% (21 h)

SMILES: CC(OC(=O)N(C)c1ccccc1)c1nnc(-c2ccccc2)nn1 (racemic) [Compound 2.22]
Reactivity k2 ([3]; TZ with TCO in MeCN at 20° C.): 2.51 M⁻¹ s⁻¹

half-life at 250 µM [1]: 18 h
SMILES: CC(OC(=O)c1ccccc1)c1nnc(C(C)OC(=O)c2ccccc2)nn1 (centres unmarked) [Compound 2.7]
Release % (conversion) [2, 11]: 96% (16 h)

SMILES: CCN(Cc1nnc(-c2cccc(NC(=O)COCCOCCOCCOCCOCCOCCOCCOCCOCCOCCOC)c2)nn1)C(=O)Oc1ccc(COC(=O)Nc2ccc3c(C)cc(=O)oc3c2)cc1 [Compound 3.33]
Release % (conversion) ([8]; 1 h): 20%
Release % (conversion) ([8]; 8 h): 80%
Reactivity k2 [9]: 520 ([5]) M^−1 s^−1
Reactivity k2 ([3]; TZ with TCO in MeCN at 20° C. (cyclization series)): 4.7 M⁻¹ s⁻¹
Release % (conversion) ([2]; Method E: 5% MeCN in PBS at 37° C., 1 h): 50%
Release % (conversion) ([2]; Method E: 5% MeCN in PBS at 37° C., 4 h): 80%
Release % (conversion) ([2]; Method E: 5% MeCN in PBS at 37° C., 72 h): 90%
half-life (physchem): 200 h
